Measurements from US10054581B1, “Inhibitors of notch signaling pathway and use thereof in treatment of cancers” (Ecole Polytechnique Federale de Lausanne (EPFL), priority 2011, dated 2018).
“Also recorded” adds a separate entry of the source.

Tested on: Notch signalling via DL4:N1 ligand-receptor pair (Notch1)
Test: DL4:N1 coculture assay, Notch driven luciferase reporter
Assay type: cell-based, mouse
Details: DL4-N1 coculture assay; for Notch inhibitory activity of derivatives compared to parental compound I3: FIG. 10
Source text: Mouse DL4-IRES dsRED cDNA was cloned into a pENTR1 vector (Invitrogen®) and finally shuttled into a destination lentivirus vector using Gateway cloning strategy (Invitrogen). A Phosphoglycerate kinase (PGK) promoter drove the expression of DL4 protein. DL4-lentiviral particles were produced in 293T cells by cotransfection of DL4-lentivirus vector, Gag/pol expression plasmid and plasmid encoding for viral envelope proteins. To overexpress Notch1 protein, mouse full length Notch1 cDNA was a cloned in a pCDNA3.1-IRES-puromycin vector. Notch1 cDNA was cloned upstream of IRES-puromycin between HindIII and XbaI restriction sites. A CMV promoter controlled the expression of Notch1 protein.
To measure the Notch signalling activation, CSL/RBP-jk consensus DNA binding sequences were cloned in a head to tail conformation in the pGL4 luciferase vector (Promega), thus named 12×CSL/RBP-jjk luciferase vector. In order to determine the Notch pathway activation in chemical compound screening assay, 12×CSL/RBP-jk consensus DNA binding sequences were cloned into pGL4.26.luciferase vector (Promega). As an internal control for transfection efficiency, SV40 Renilla vector was used (Promega).
In order to generate DL4 and N1 stable cell lines, HeLa cell were bought from ATCC (catalog # CCL-2). To generate DL4 stable lines, cells were transduced with DL4-lentiviral particles. DL4 stable clones were selected using puromycin. High DL4 expressing clones were sorted using antibodies against DL4 with Fluorescence activated cell sorting (FACS). To generate N1 stable line, cell were transfected with a pCDNA3.1+(Invitrogen) plasmid containing mouse full length Notch1 under the control of CMV promoter. To select for Notch1 expressing clones, an IRES puromycin cassette was cloned downstream of Notch1 cDNA. HeLa cells expressing high levels of Notch1 were enriched by FACS using anti-Notch1 antibodies. DL4- and N1-HeLa cells were cultured in DMEM (GIBCO, Invitrogen), 10% FCS and 10 ug/ml of puromycin (Sigma).
For chemical library screen, the coculture assay was performed as follows. N1-HeLa cells were cotransfected in 10 cm tissue culture dishes with 16 μg of pGL4.26. 12×CSL.luciferase vector/plate, 4 μg of Notch1 expression plasmid/plate, and 200 ng of SV40 Renilla vector/plate. DL4- and N1-HeLa cells were detached from the plate by using 0.5 mM EDTA (1×PBS). The both cell populations were counted and mixed in 1:1 ratio (5,000:5,000 cells/well in a 384 well plate) and dispensed into 384 well plates (white, clear bottom, Corning) using multidrop Combi plate dispenser. The assay plates were pre-dispensed (using automated Biomek 3000 liquid handler) with chemical compound libraries (Microsource NIMDS, Maybridge Hitfinder and Prestwick) to give a final concentration of 10 μM. The final assay volume was 22 μls. Twenty-four hours later, growth media was aspirated and cells were lysed with 1× Passive lysis buffer for 10 minutes at room temperature. Luciferase activity was measured using Luciferase Assay Reagent II and Renilla values were determined by using Stop and Glow reagent (Dual luciferase assay system, Cat #E1980, Promega). Luciferase and renilla readouts were taken using Tecan® F500 (Tecan) multiplate reader. All the liquid handling steps (aspiration of the medium, dispensing of Passive lysis buffer, Luciferase Assay Reagent II and Stop and Glow reagents) were performed using ELF406 liquid handler.
In order to identify novel modulators of the Notch pathway, Applicants have established a coculture assay in which DL4 ligand expressing HeLa cells were cultured with N1 HeLa cells, thereby activating the Notch pathway. The use of a DL4 and N1 HeLa cell coculture system mimics physiological conditions of cell-cell communication between ligand and receptor expressing cells. The in vitro generation of a controlled receptor-ligand assay system allowed Applicants to modify and monitor the Notch signal intensity by γ-secretase inhibitors. […]

`Nc1ccc(Oc2ccc(C3CCCCC3)cc2)nc1` [I3-A, 6-(4-cyclohexylphenoxy)pyridin-3-amine] was tested, and the “ability to block Notch pathway activation in coculture assay (screening of derivatives)” value (shortened to “ability”) was “ability to block Notch pathway activation in coculture assay” and the “Notch inhibitory activity of derivatives compared to parental compound I3” value was “block Notch signalling to comparable levels to parental compound I3; also recorded: exhibit anti-Notch activity comparable to 6-(4-Tert-Butylphenoxy)Pyridin-3-Amine (I3)”.

In the case of `CCC(C)(C)c1ccc(Oc2ccc(N)cn2)cc1` [I3-B, 6-(4-(tert-Pentyl)phenoxy)pyridin-3-amine], the “ability” value is reported as “ability to block Notch pathway activation in coculture assay” and the “Notch inhibitory activity of derivatives compared to parental compound I3” value is reported as “block Notch signalling to comparable levels to parental compound I3; also recorded: exhibit anti-Notch activity comparable to 6-(4-Tert-Butylphenoxy)Pyridin-3-Amine (I3)”.

`CC(C)(C)c1ccc(Oc2ccc(N)cc2)cc1` [I3-C, 4-(4-(tert-butyl)phenoxy)aniline] was tested, and the “ability” value was “ability to block Notch pathway activation in coculture assay” and the “Notch inhibitory activity of derivatives compared to parental compound I3” value was “block Notch signalling to comparable levels to parental compound I3; also recorded: exhibit anti-Notch activity comparable to 6-(4-Tert-Butylphenoxy)Pyridin-3-Amine (I3)”.

With `CCCCc1ccc(Oc2ccc(N)cn2)cc1` [I3-D, 6-(4-Butylphenoxy)pyridin-3-amine] the “ability” value was “ability to block Notch pathway activation in coculture assay”.

In the case of `CCC(C)(C)c1ccc(Oc2ccc(N)cc2)cc1` [I3-E, 4-(4-(tert-pentyl)phenoxy)aniline], the “ability” value is reported as “ability to block Notch pathway activation in coculture assay” and the “Notch inhibitory activity of derivatives compared to parental compound I3” value is reported as “block Notch signalling to comparable levels to parental compound I3; also recorded: exhibit anti-Notch activity comparable to 6-(4-Tert-Butylphenoxy)Pyridin-3-Amine (I3)”.

In the case of `Nc1ccc(Oc2ccc(C3CCCCC3)cc2)cc1` [I3-F, 4-(4-cyclohexylphenoxy)aniline], the “ability” value is reported as “ability to block Notch pathway activation in coculture assay” and the “Notch inhibitory activity of derivatives compared to parental compound I3” value is reported as “appear to have enhanced activity”.

In the case of `Nc1ccc(Oc2ccc(C34CC5CC(CC(C5)C3)C4)cc2)nc1` [I3-G, 6-(4-((3r,5r,7r)-adamantan-1-yl)phenoxy)pyridin-3-amine], the “ability” value is reported as “ability to block Notch pathway activation in coculture assay” and the “Notch inhibitory activity of derivatives compared to parental compound I3” value is reported as “block Notch signalling to comparable levels to parental compound I3; also recorded: exhibit anti-Notch activity comparable to 6-(4-Tert-Butylphenoxy)Pyridin-3-Amine (I3)”.

For `CC(C)(C)c1cccc(Oc2ccc(N)cn2)c1` [I3-H, 6-(3-(tert-butyl)phenoxy)pyridin-3-amine], the “ability” value was “ability to block Notch pathway activation in coculture assay” and the “Notch inhibitory activity of derivatives compared to parental compound I3” value was “block Notch signalling to comparable levels to parental compound I3; also recorded: exhibit anti-Notch activity comparable to 6-(4-Tert-Butylphenoxy)Pyridin-3-Amine (I3)”.

With `CC(C)(C)c1ccc(Oc2ccc(N)cc2F)cc1` [I3-I, 4-(4-(tert-butyl)phenoxy)-3-fluoroaniline] the “ability” value was “ability to block Notch pathway activation in coculture assay” and the “Notch inhibitory activity of derivatives compared to parental compound I3” value was “appear to have enhanced activity”.

In the case of `CC(C)c1ccc(Oc2ccc(N)cc2)cc1` [I3-J, 4-(4-isopropylphenoxy)aniline], the “ability” value is reported as “ability to block Notch pathway activation in coculture assay”.

In the case of `CC(C)(C)CC(C)(C)c1ccc(Oc2ccc(N)cn2)cc1` [I3-K, 6-(4-(2,4,4-trimethylpentan-2-yl)phenoxy)pyridin-3-amine], the “ability” value is reported as “ability to block Notch pathway activation in coculture assay”.

With `Nc1ccc(Oc2ccc(C3CCCCC3)cc2)c(F)c1` [I3-L, 4-(4-cyclohexylphenoxy)-3-fluoroaniline] the “ability” value was “ability to block Notch pathway activation in coculture assay”.

`CCC(C)(C)c1ccc(Oc2ccc(N)cc2F)cc1` [I3-M, 3-fluoro-4-(4-(tert-pentyl)phenoxy)aniline] was tested, and the “ability” value was “ability to block Notch pathway activation in coculture assay” and the “Notch inhibitory activity of derivatives compared to parental compound I3” value was “block Notch signalling to comparable levels to parental compound I3; also recorded: exhibit anti-Notch activity comparable to 6-(4-Tert-Butylphenoxy)Pyridin-3-Amine (I3)”.

For `CCCC(C)(C)c1ccc(Oc2ccc(N)cn2)cc1` [I3-N, 6-(4-(2-methylpentan-2-yl)phenoxy)pyridin-3-amine], the “ability” value was “ability to block Notch pathway activation in coculture assay” and the “Notch inhibitory activity of derivatives compared to parental compound I3” value was “block Notch signalling to comparable levels to parental compound I3; also recorded: exhibit anti-Notch activity comparable to 6-(4-Tert-Butylphenoxy)Pyridin-3-Amine (I3)”.

For `Nc1ccc(Oc2ccc(C34CC5CC(CC(C5)C3)C4)cc2)cc1` [I3-O, 4-(4-((3r,5r,7r)-adamantan-1-yl)phenoxy)aniline], the “ability” value was “ability to block Notch pathway activation in coculture assay”.

With `Nc1ccc(Oc2ccc(C34CC5CC(CC(C5)C3)C4)cc2)c(F)c1` [I3-P, 4-(4-((3r,5r,7r)-adamantan-1-yl)phenoxy)-3-fluoroaniline] the “ability” value was “ability to block Notch pathway activation in coculture assay”.
